Experiment [1] deals with T1, Thermus sp. T351 esterase E101, SEQ ID NO.:8 (Thermus filiformis, UniProt A0A0A2WSC9).
T1 construct: T351; native about 135 kD
In words: biochemical. It counts as biochemical. The source says: The specific activity of the enzyme is ten fold greater than observed for E100 with 4-methyl-umbelliferyl butyrate (MUB) as the substrate. E101 is inhibited by PMSF but is insensitive to metal ions or metal ion chelators. […] Table 5 outlines the inhibitory effect of various substances on E101 activity.
Reaction conditions are those described in the general experimental above

The subject of experiment [2] is Thermus sp. T351 esterase E100. In words: Inhibition by reaction components of p-nitrophenylproprionate hydrolysis by E100. The class given is biochemical. To be noted: no concentration stated. As for the experimental part: Esterase activity is measured by monitoring the hydrolysis of p-nitrophenylproprionate (pNP), or in some cases MUB. Each substrate is dissolved in acetonitrile and added to the reaction mixture (100 μM final concentration) which contain 50 mM Tris HCl pH 8.5 adjusted for temperature dependent pH variation. Reactions are thermally equilibrated at 37° C. for 5 minutes prior to initiation of the reaction by addition of 10 μL of enzyme sample, while control reactions substituted equivalent amounts of BSA. The reaction is monitored spectrophotometrically at 405 nm ε=17 mM^-1 cm^-1 for pNP and 360 nm ε=7.9 mM^-1 cm^-1 for MUB.
The rates of enzyme catalyzed hydrolysis are corrected for the spontaneous hydrolysis of the substrate. Protein concentrations are determined by either the absorbance at 280 nm or by Lowery assay. Crude activity is determined by a calorimetric assay based on the hydrolysis of 5-bromo-4-chloro-3-indoyl esters suspended in a 0.7% agar matrix on microtiter plates. A 0.1 mg/ml solution of the indolyl derivative is dissolved in a minimal volume of acetonitrile and added to a warm solution of 0.7% agar containing 0.1M phosphate buffer pH 7.5. 10 μL of this solution is distributed to microtiter plates which, when cooled, could be used with as much as 100 μL of enzyme sample and incubated at temperatures from ambient to >65° C. […]

T1 sequence (A0A0A2WSC9 entry or part of it A175T/N178S/T194S/A197P/K279Q/P281S): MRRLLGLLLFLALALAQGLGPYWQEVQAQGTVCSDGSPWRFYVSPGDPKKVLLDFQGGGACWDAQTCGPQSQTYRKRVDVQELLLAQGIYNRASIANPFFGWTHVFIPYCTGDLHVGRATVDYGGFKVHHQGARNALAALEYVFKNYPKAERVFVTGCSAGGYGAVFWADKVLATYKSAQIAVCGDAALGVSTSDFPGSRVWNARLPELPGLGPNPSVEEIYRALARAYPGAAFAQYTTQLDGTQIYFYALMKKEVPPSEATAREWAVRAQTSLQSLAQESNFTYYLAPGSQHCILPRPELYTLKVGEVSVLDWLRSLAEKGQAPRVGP

As to `O=C(O)CN(CCN(CC(=O)O)CC(=O)O)CC(=O)O` [EDTA], the activity at 1000 µM in experiment [1] (read-out: Relative Rate) came out at 93%.

On to `OC(CS)C(O)CS` (stereo not drawn) [DTT], for which the activity at 1000 µM in experiment [1] (read-out: Relative Rate) was 98%.

On to `O=S(=O)(F)Cc1ccccc1` [PMSF], for which, in experiment [1] (additive 0.1 mM, None = 100%, substrate p-nitrophenylproprionate), the “Relative Rate” value is 0%. The “Inhibition of E101 (in words)” value in experiment [1] (no concentration stated) was “inhibited”. Take `OCCS` [BME, β-mercaptoethanol]: the activity at 10000 µM in experiment [1] (read-out: Relative Rate) was 96%. On to `Cc1ccc(S(=O)(=O)F)cc1` [tosyl fluoride], for which the “Inhibition of E100 (in words)” value in experiment [2] was “effectively inhibited”.

The values are drawn from patent publication US6218167A, “Stable biocatalysts for ester hydrolysis” (ThermoGen, Inc., priority 1998, dated 2001).
